Experimental data from patent US20090215783A1, “COMPOSITION FOR INDUCTION OR INHIBITION OF STEM CELL DIFFERENTIATION” (CHOONGWAE PHARMA CORPORATION, priority 2006, published 2009).

Tests used:
[1] = tested on: Mouse embryonic stem (ES) cells, TC1; experiment: Cardiomyogenesis modulating activity assay (alpha-MHC promoter EGFP, embryoid bodies, FACS/fluorescence microscopy); assay type: cell-based; details: embryoid bodies treated for 5 days, FACS
Description: a. Cell culture: Mouse embryonic stem (ES) cells, TC1 derived from 129/S6 strain were cultured on irradiated feeder layer in the culture medium which is high-glucose DMEM (Gibco) BRL, Germany) supplemented with 15% FBS (Hyclone), 0.1 mM beta-mercaptoethanol, […] sodium pyruvate, 1 mM L-glutamine and 1× non-essential amino acids.
b. Establishment of alpha-MHC stably transformed ES cell line: A construct (FIG. 8) containing 1.8 kb promoter sequence of the mouse alpha-MHC gene between EcoRI and SalI sites of pEGFP-1 (Clontech Laboratories, Inc, CA, USA) was linearized at XhoI site, and was introduced into mouse ES cells, TC1, using the Gene Pulser II (BioRad, MA). A selection medium containing G418 was applied for two weeks from 24 hours after electroporation. The selected ES cell clones were harvested and expanded on the feeder cell layer. The green fluorescence-expressing clones when differentiated into cardiomyocytes were used in this experiment.
c. Cardiomyogenesis modulating activity assay: Embryoid body (EB) was formed by hanging drop culture using about a number of 600 (six hundred) ES cells for two days and it was further expanded by culturing in suspension condition on a Petri-dish for another two days. Then each EB was plated on a well of 96 well culture plates. Test compounds were dissolved in DMSO and diluted with culture media (final 0.05% DMSO) and EB was treated with test compound for 5 days. Culture medium was changed every three days after plating. Expression level of EGFP was measured with FACS (Beckman). For FACS analysis, differentiating cells were dissociated with trypsin. For the determination of the extent of differentiation, EB was observed and photographed with an inverted fluorescence microscope (Zeiss, Germany). Number of beating EBs was counted under the microscope and recorded once daily.

[2] = tested on: human bone marrow derived-mesenchymal stem cells (hBMMSC); experiment: Osteogenesis modulating activity assay by test compound alone (ALP activity); assay type: cell-based; details: Homo sapiens, 168 h; hBMMSC, 20 μM test compound alone, six to seven days; read-out: Osteogenesis: fold change of ALP activity compared with DMSO control
Description: Cell culture: Human bone marrow derived-mesenchymal stem cells (hBMMSC) were isolated from normal subjects.
Osteogenesis modulating activity assay by test compound alone: hBMMSC were cultivated in the culture medium and cells were seeded into 96-well culture plates and test compounds were dissolved in DMSO and diluted with culture media (final 0.01% DMSO) and added into the media (final concentration of test compound was 20 μM) and cultured in the CO2 incubator (37° C., 5% CO2). Culture medium was changed every two days with fresh one and compound was treated again whenever medium was changed. Six to seven days after incubation, Alkaline phosphatase activity of cell lysates was measured by colorimetry. For the determination of mineralization within the cells, Von Kossa staining or Alizarin Red S assay was performed 10-14 days after incubation.

| Compound | Cardiomyogenesis: fold change of EGFP expression level compared with DMSO control [1] | fold induction at 20 µM [2] |
| --- | --- | --- |
| O=C1[C@H](c2ccccc2)N2C(=O)CN(Cc3ccccc3)N(C(=O)NCc3ccccc3)[C@H]2CN1Cc1cccc(F)c1 [#60] | 1.23 fold |  |
| O=C1[C@H](Cc2ccc(O)cc2)N2C(=O)CN(Cc3ccccc3)N(C(=O)NCc3ccccc3)C2CN1Cc1cccc(F)c1 (stereo partly shown) [#53] | 1.95 fold |  |
| Cc1ccc(C[C@H]2C(=O)N(CCc3ccccc3)C[C@H]3N2C(=O)CN(C)N3C(=O)NCc2ccccc2)cc1 [#36] | 0.54 fold | 1.55 |
| CCCN1CC(=O)N2C(CN(CCC(C)C)C(=O)[C@@H]2CCC(=O)O)N1C(=O)NCc1ccccc1 (stereo partly shown) [#95] | 2.22 fold | 1.19 |
| CCCCNC(=O)N1[C@H]2CN([C@@H](C)c3ccccc3)C(=O)[C@H](Cc3ccc(O)cc3)N2C(=O)CN1Cc1ccc(C)cc1 [#45] |  | 1.08 |
| CN1C(=O)N2C(CN(CCSCc3ccccc3)C(=O)[C@@H]2Cc2ccc(O)cc2)N1C(=O)NCc1ccccc1 (stereo partly shown) [#108] | 1.19 fold | 0.94 |
| CCCCNC(=O)N1[C@H]2CN(CCCCc3ccccc3)C(=O)[C@H](CCC(=O)O)N2C(=O)CN1Cc1cccc(F)c1 [#44] | 1.98 fold | 0.56 |
| CN1CC(=O)N2[C@@H](Cc3ccc(OCc4ccccc4)cc3)C(=O)N(CCc3ccccc3)C[C@@H]2N1C(=O)NCc1ccccc1 [#35] | 1.03 fold | 0.94 |
| COc1ccc(CN2CC3N(C(=O)CN(C)N3C(=O)NCc3ccccc3)C(Cc3ccc(O)cc3)C2=O)cc1 (stereo not shown) [#19] | 3.03 fold | 0.7 |
| O=C1[C@H](CCc2ccccc2)N2C(=O)CN(Cc3ccc(F)cc3)N(C(=O)NCc3ccccc3)[C@H]2CN1Cc1cccc(C(F)(F)F)c1 [#64] | 2.83 fold | 0.79 |
| CCCCNC(=O)N1[C@H]2CN([C@@H](C)c3ccccc3)C(=O)[C@H](CC(=O)O)N2C(=O)CN1Cc1ccc(C)cc1 [#49] | 1.14 fold |  |
| CCCN1CC(=O)N2C(CN(CCC(C)C)C(=O)[C@@H]2CC(C)C)N1C(=O)NCc1ccccc1 (stereo partly shown) [#93] | 0.57 fold | 0.63 |
| CN1CC(=O)N2[C@@H](CCc3ccccc3)C(=O)N(CCc3ccccc3)C[C@@H]2N1C(=O)NCc1ccccc1 [#33] | 0.28 fold | 1.85 |
| CC(C)C[C@H]1C(=O)N(CC(=O)N2c3ccccc3Oc3ccccc32)C[C@H]2N1C(=O)CN(C)N2C(=O)NCc1ccccc1 [#5] | 0.36 fold | 0.29 |
| CN1CC(=O)N2[C@@H](Cc3ccc(O)cc3)C(=O)N(Cc3cccc4[nH]ncc34)C[C@@H]2N1C(=O)NCc1ccccc1 [#11] | 0.07 fold | 0.3 |
| CN1CC(=O)N2[C@@H](Cc3ccc(O)c(C(C)(C)C)c3)C(=O)N(Cc3cccc4cccnc34)C[C@@H]2N1C(=O)NCc1ccccc1 [#7] | 1.22 fold | 0.51 |
| CC(C)C[C@H]1C(=O)N(CCOc2ccccc2N)CC2N1C(=O)CN(C)N2C(=O)NCc1ccccc1 (stereo partly shown) [#3] | 1.25 fold | 1.29 |
| CCCN1CC(=O)N2C(Cc3ccc(O)cc3)C(=O)N(CCC(C)C)CC2N1C(=O)NCc1ccccc1 (stereo not shown) [#92] | 2.13 fold | 0.7 |
| COc1ccc(CN2C[C@H]3N(C(=O)CN(C)N3C(=O)NCc3ccccc3)[C@@H](c3ccccc3)C2=O)cc1 [#25] | 1.78 fold | 0.6 |
| CC(C)C[C@H]1C(=O)N(C2CCCCC2)C[C@H]2N1C(=O)N(C)N2C(=O)NCc1ccccc1 [#105] | 1.12 fold | 0.8 |
| CC(C)CN1C[C@H]2N(C(=O)CN(C)N2C(=O)NCc2ccccc2)[C@@H](CC(=O)O)C1=O [#16] | 1.42 fold | 0.97 |

| Compound | Cardiomyogenesis: fold change of EGFP expression level compared with DMSO control [1] | fold induction at 20 µM [2] |
| --- | --- | --- |
| CN1CC(=O)N2[C@@H](CC3CCCCC3)C(=O)N(CCCc3ccccc3)C[C@@H]2N1C(=O)NCc1ccccc1 [#28] | 1.23 fold | 0.26 |
| CCCCOCCCN1C[C@H]2N(C(=O)N(C)N2C(=O)NCc2ccccc2)[C@@H](CCSC)C1=O [#107] | 0.59 fold | 0.66 |
| CN1CC(=O)N2[C@@H](CC3CCCCC3)C(=O)N(CCc3ccccc3)C[C@@H]2N1C(=O)NCc1ccccc1 [#37] | 0.98 fold | 0.95 |
| NC(=O)CC1C(=O)N(CCSCc2ccccc2)CC2N1C(=O)CN(Cc1ccc(F)cc1)N2C(=O)NCc1ccccc1 (stereo not shown) [#110] | 1.18 fold | 0.63 |
| O=C1[C@H](CCc2ccccc2)N2C(=O)CN(Cc3ccccc3)N(C(=O)NCc3ccccc3)[C@H]2CN1CCc1ccc(Cl)cc1 [#75] | 0.50 fold | 1.16 |
| O=C1[C@@H](Cc2ccccc2)N2C(=O)CN(Cc3ccc(F)cc3)N(C(=O)NCc3ccccc3)[C@@H]2CN1Cc1cccc(C(F)(F)F)c1 [#61] | 1.06 fold |  |
| Cc1ccc(C[C@H]2C(=O)N(CCc3ccc(Cl)cc3)C[C@H]3N2C(=O)CN(Cc2ccccc2)N3C(=O)NCc2ccccc2)cc1 [#78] | 1.70 fold | 0.75 |
| CN1C(=O)N2[C@@H](Cc3ccc(O)cc3)C(=O)N(Cc3cccc4ccccc34)C[C@@H]2N1C(=O)NCc1ccccc1 [#100] | 1.35 fold | 1.11 |
| COc1ccc(C[C@H]2C(=O)N(CCc3ccc(Cl)cc3)C[C@H]3N2C(=O)CN(Cc2ccccc2)N3C(=O)NCc2ccccc2)cc1 [#76] | 1.24 fold | 1.58 |
| CN1CC(=O)N2[C@@H](CN(Cc3cccc(Cl)c3)C(=O)[C@H]2c2ccc(O)cc2)N1C(=O)NCc1ccccc1 [#8] | 0.65 fold | 0.55 |
| O=C1[C@H](COCc2ccccc2)N2C(=O)CN(Cc3ccc(F)cc3)N(C(=O)NCc3ccccc3)C2CN1Cc1cccc(C(F)(F)F)c1 (stereo partly shown) [#62] | 0.89 fold |  |
| C=CCN1CC(=O)N2[C@@H](Cc3ccc(O)cc3)C(=O)N(Cc3ccc(F)c4scnc34)C[C@@H]2N1C(=O)NCc1ccccc1F [#14] |  | 0.29 |
| O=C(O)C[C@H]1C(=O)N(Cc2cccc(F)c2)C[C@H]2N1C(=O)CN(Cc1ccccc1)N2C(=O)NCc1ccccc1 [#59] | 0.48 fold |  |
| CCCCNC(=O)N1[C@H]2CN([C@@H](C)c3ccccc3)C(=O)[C@H](CCC(=O)O)N2C(=O)CN1Cc1ccc(C)cc1 [#50] | 0.26 fold |  |
| CCCCNC(=O)N1[C@H]2CN([C@@H](C)c3ccccc3)C(=O)[C@H](Cc3ccccc3)N2C(=O)CN1Cc1ccc(C)cc1 [#47] | 2.32 fold |  |
| CCC[C@H]1C(=O)N(Cc2cccc(F)c2)C[C@H]2N1C(=O)CN(Cc1ccccc1)N2C(=O)NCc1ccccc1 [#58] | 1.91 fold |  |
| O=C1[C@H](Cc2ccccc2)N2C(=O)CN(Cc3ccccc3)N(C(=O)NCc3ccccc3)[C@H]2CN1Cc1cccc(F)c1 [#56] | 1.08 fold |  |
| C#CCN1CC(=O)N2C(Cc3ccc(Cl)cc3)C(=O)N(CCCCCCC)C[C@@H]2N1C(=O)NCc1ccccc1 (stereo partly shown) [#52] | 1.99 fold |  |
| CCCCNC(=O)N1[C@H]2CN([C@@H](C)c3ccccc3)C(=O)[C@H](CCC)N2C(=O)CN1Cc1ccc(C)cc1 [#48] | 1.02 fold |  |
| CC(C)C[C@H]1C(=O)N(Cc2cccc(F)c2)C[C@H]2N1C(=O)CN(Cc1ccccc1)N2C(=O)NCc1ccccc1 [#54] | 1.42 fold |  |
